# Like-named read-outs stand apart in the source and are kept apart here.
# How the values were obtained:
# [1] = system: recombinant SOS1 and recombinant KRAS G12D; assay: AlphaScreen protein-protein interaction assay, SOS1 and KRAS G12D; assay type: binding; conditions: KRAS-GDP, result in words
# [2] = system: recombinant SOS1 and recombinant KRAS G12C; assay: AlphaScreen protein-protein interaction assay, SOS1 and KRAS G12C; assay type: binding; conditions: KRAS-GDP, result in words
# [3] = system: panel of 24 cell lines, including 18 KRAS-mutated cell lines; assay: 2D proliferation assays across a panel of 24 cell lines; assay type: cell-based
# [4] = system: NCI-H520 cells (KRAS wild-type); assay: 3D proliferation assay, NCI-H520; assay type: cell-based
# [5] = system: A375 cells (KRAS wild-type, BRAF V600E); assay: 3D proliferation assay, A375; assay type: cell-based
# [6] = system: primary smooth muscle cells; assay: Proliferation of primary smooth muscle cells; assay type: cell-based; conditions: read-out: IC50, proliferation
# [7] = system: panel of 24 cell lines, including 18 KRAS-mutated cell lines; assay: 3D proliferation assays across a panel of 24 cell lines; assay type: cell-based; conditions: for IC50: read-out: IC50, 3D proliferation
# [8] = system: KRAS Q61K mutant pancreatic PDX model; assay: KRAS Q61K mutant pancreatic PDX model efficacy; assay type: in vivo, mice; conditions: BI-3406 50 mg/kg bid, trametinib 0.1 mg/kg bid, 5 days on/2 days off
# [9] = system: pERK levels in A375 melanoma cells (KRAS wild-type, BRAF V600E); assay: pERK inhibition in A375 cells; assay type: cell-based; conditions: A375, 1 hour, 2D
# [10] = system: retinal pigment epithelial cells; assay: Proliferation of retinal pigment epithelial cells; assay type: cell-based; conditions: Epithelial cell, read-out: IC50, proliferation
# [11] = system: KRAS G12C-mutated MIA PaCa-2 xenografts; conditions: 12 or 50 mg/kg twice daily; p<0.005 vs vehicle control
# [12] = system: pERK levels in isogenic NCI-H23 cell lines; assay: pERK levels in isogenic NCI-H23 cell lines
# foreskin fibroblasts = assay: cells; conditions: Fibroblast, read-out: IC50, proliferation
structure (smiles),measurement,setting,value
C=CC(=O)N1CCN(c2ncnc3c(F)c(-c4c(O)cccc4F)c(Cl)cc23)CC1 [ARS-1620],inhibition of SOS1 interaction with KRAS G12D,[1],no effect
same,inhibition of SOS1 interaction with KRAS G12C,[2],able to interfere
CNCc1ccccc1-c1csc([C@@H](C)Nc2nc(C)nc3cc(OC)c(OC)cc23)c1 [BAY293],activity in 2D proliferation assays,[3],no activity
COc1cc2nc(C)nc(N[C@H](C)c3cc(N)cc(C(F)(F)F)c3)c2cc1O[C@H]1CCOC1 [BI-3406],effect on 3D growth,[4],not appreciably affected
same,activity in 2D proliferation assays,[3],no activity
same,effect on 3D growth,[5],not appreciably affected
same,IC50,[6],> 5000 nM
same,IC50,[7],9 to 220 nM
same,antitumor efficacy,[8],only weak efficacy
same,pERK modulation,[9],No pERK modulation
same,IC50,[10],> 5000 nM
same,tumor growth inhibition,[11],prolonged dose-dependent tumor growth inhibition
same,modulation of pERK,[12]; NCI-H23 cells carrying the G12R variant,No modulation
same,inhibition of pERK levels,[12]; NCI-H23 cells carrying the Q61H oncogenic variant,weak inhibition
same,reduction of pERK levels,"[12]; all KRAS variant isogenic NCI-H23 cell lines, independent of zygosity",~50%
CC1(N)CCN(c2cnc(-c3cccc(Cl)c3Cl)c(N)n2)CC1 [SHP099],activity in 2D proliferation assays,[3],no activity
same,effect in 3D proliferation,[7]; Q61L/H and G12R KRAS mutant tumor cells,no effects were detectable
same,IC50,"[7]; KRAS G12C, a subset of G12D cell lines, and one G12S cell line",167 to 790 nM
same,IC50,[7]; KRAS G13D and G12V cells,1180 to 4410 nM
Cc1[nH]c2ccccc2c1CCNCc1ccc(/C=C/C(=O)NO)cc1 [panobinostat],effect on 3D growth,[4],responded
same,effect on 3D growth,[5],responded
CC(=O)Nc1cccc(-n2c(=O)n(C3CC3)c(=O)c3c(Nc4ccc(I)cc4F)n(C)c(=O)c(C)c32)c1 [trametinib],IC50,[6],843 nM
same,IC50,[10],12 nM
same,IC50,foreskin fibroblasts,85 nM
